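In this assay, cells in 96-well plates receive the compound at five concentrations for 48 hours. Endpoints are linearly interpolated between the surrounding concentrations. The concentration for 50% growth inhibition is given as GI50. TGI is the concentration that stops growth completely.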 Where a SMILES comes first, the peptide text is derived from it. [ ]: non-standard residue; d: D form. The star is where a group is joined. Cbz = O=C(OCc1ccccc1)*; Aib = CC(C)(N)C(=O)O
Tests used:
Assay in all cases: NCI anticancer screen, dose series, 48 h
786-0 renal = tested on: 786-0 renal
BT-549 breast = tested on: BT-549 breast
CAKI-1 renal = tested on: CAKI-1 renal
KM12 colon = tested on: KM12 colon
MDA-MB-435 = tested on: MDA-MB-435
OVCAR-4 ovarian = tested on: OVCAR-4 ovarian
SN12C renal = tested on: SN12C renal
SW-620 colon = tested on: SW-620 colon

SMILES	TGI (786-0 renal) [µM]	TGI (BT-549 breast) [µM]	TGI (CAKI-1 renal) [µM]	TGI (KM12 colon) [µM]	TGI (MDA-MB-435) [µM]	TGI (OVCAR-4 ovarian) [µM]	TGI (SN12C renal) [µM]	TGI (SW-620 colon) [µM]	GI50 (BT-549 breast) [µM]	GI50 (CAKI-1 renal) [µM]	GI50 (KM12 colon) [µM]	GI50 (MDA-MB-435) [µM]	GI50 (OVCAR-4 ovarian) [µM]	GI50 (SN12C renal) [µM]	GI50 (SW-620 colon) [µM]
COc1cc2nc(-c3cccs3)nc(N3C(c4cc(OC)c(OC)c(OC)c4)=NNC(=O)c4ccccc43)c2cc1OC	> 100	39.6	> 100	> 100	32.1	42.1	51.3								
CC(C)(CO)CNc1cc(Cl)nc(N)n1	> 100	> 100	> 100	> 100	> 100	> 100	> 100	> 100							
Cc1cc(S(=O)(=O)Nc2n[nH]c(Nc3ccccc3)n2)c(SSc2cc(Cl)c(C)cc2S(=O)(=O)Nc2n[nH]c(Nc3ccccc3)n2)cc1Cl		> 100	> 100	> 100	> 100	> 100	> 100	> 100							
COc1ccc(C2=Nc3c(nc(SC)[nH]c3=O)NC(c3ccccc3)C2)cc1 (stereo not given)	> 100	66.1	31	30.2	> 100		47.2	> 100							
Fc1ccc2c(c1)nc1n2C(c2c(F)cccc2F)SC1 (stereo not given)	> 100	> 100	> 100	64.4	> 100	> 100	> 100	> 100							
CNC(=O)C1OC(n2cnc3c(NCc4cccc(I)c4)nc(Cl)nc32)C(O)C1O (stereo not given)	46.8	28.5	40.7	24.3	27		41	51.6							
CCOC(=O)C1CCCN1C(=O)c1ccccc1Cl (stereo not given)	> 100	> 100	> 100	> 100	> 100		> 100	> 100							
CC1C(c2ccccc2)NC(c2ccccc2)CC1(N)C#N (stereo not given)	> 100	> 100	> 100	> 100	> 100	> 100	> 100	> 100							
Cc1ccsc1/C=N/Nc1cc(C)c2ccccc2n1	31.8	44.8	41.1	46	30	72.2	34	48.7							
O=C1Nc2ccccc2SC1=C(C(=O)c1ccccc1)C(=O)c1ccccc1	> 100	> 90.2	> 100	> 100	55.6	> 100	> 89.8	> 100							
ClC1=C(Cl)C2OC3C=CCC3OC2C(Cl)=C1Cl (stereo not given)	> 100		> 100	> 100	> 100	> 100		> 100							
Clc1ncnc2c1nc(C#Cc1ccccc1)n2C1CCCCO1 (stereo not given)	3.64	4.1	3.91	3.05	5.84	3.75		4.94							
OCC(S)CS.[Bi] (stereo not given)	39.3	27.8	24.9	46.2	35.6	69.2	37.9	> 100							
Cc1ccc2c(c1)Nc1ccccc1P2(=O)O	> 100		> 100	> 100	> 100	> 100	> 100	> 100							
Cc1oc2nc(N(C)C)n3cnnc3c2c1C	> 100	> 100	> 100	> 100	> 100	> 100	> 100	> 100							
Nc1ccc(C(=O)O)cc1	> 100		> 100	> 100	> 100	> 100	> 100	> 100							
CCCCCCCCCCCCCCCCCCNc1nc(=O)n(C2CC(OP(=O)(O)OCC3OC(n4cc(F)c(=O)[nH]c4=O)CC3O)C(CO)O2)cc1F (stereo not given)	> 100		> 100	27.8	> 100	> 100	> 100	> 100							
O=C(NNc1nc(-c2ccccc2)cs1)Nc1ccccc1	85	60.9	> 100	> 100	65.8	88.5	97.8	> 100							
NS(=O)(=O)c1ccc(NCc2nc3ccccc3[nH]2)cc1	> 100	> 100	> 100	> 100	> 100	> 100	> 100								
Cn1c(-c2c(C3=CC(=O)N(c4ccccc4)C3=O)c3ccccc3n2C)cc2ccccc21	> 100		> 100	> 100	> 100	> 100	> 100	> 100							
CC1=NN2CCC(=O)N=C2S1	> 100	> 100	> 100	> 100	> 100	> 100	> 100	> 100							
CC(C)N1[C@@H]2CCCC[C@H]2N(C(C)C)[P+]1=O	> 100		> 100	> 100	> 100		> 100	> 100							
CC(C)=CCC[C@@H](C)C1=C(O)C(Nc2ccccc2)=C(C)C(=O)C1=O	> 100	> 100	56.8	> 100	> 100	> 100	> 100	> 100							
COc1cc(-c2nc(SC)nc3c2CCc2ccccc2-3)cc(OC)c1OC	> 100	> 100		> 100	> 100	> 100	> 100	> 100							
Cc1cc(OCc2nnc3n2N=C(c2cc(F)c(Cl)cc2Cl)/C(=C/c2ccc(-c4ccc(Cl)cc4)o2)S3)ccc1Cl	> 50	> 50	> 50	> 50	> 50		> 50	> 50							
O=c1onc(Nc2ccccc2)n1-c1ccccc1	> 100	> 100	> 100	> 100		> 100	> 100	> 100							
O=NNc1c[nH]c(=O)[nH]c1=O	> 100		> 100	> 100	> 100	> 100	> 100	> 100							

SMILES	TGI (786-0 renal) [µM]	TGI (BT-549 breast) [µM]	TGI (CAKI-1 renal) [µM]	TGI (KM12 colon) [µM]	TGI (MDA-MB-435) [µM]	TGI (OVCAR-4 ovarian) [µM]	TGI (SN12C renal) [µM]	TGI (SW-620 colon) [µM]	GI50 (BT-549 breast) [µM]	GI50 (CAKI-1 renal) [µM]	GI50 (KM12 colon) [µM]	GI50 (MDA-MB-435) [µM]	GI50 (OVCAR-4 ovarian) [µM]	GI50 (SN12C renal) [µM]	GI50 (SW-620 colon) [µM]
CCN(CC)C(=O)c1cc([N+](=O)[O-])c(=O)n2c1[nH]c1ccccc12	> 100		> 100	> 100	> 100	> 100	> 100	> 100							
CCOP(=O)(Cc1nc(C#N)c(N)o1)OCC	> 100		> 100	> 100	> 100	> 100	> 100	> 100							
COc1ccc(/C=C(/c2ccc(OC)cc2)c2c(Cl)cc(Cl)c(/C(=C\c3ccc(OC)cc3)c3ccc(OC)cc3)c2N=Nc2ccccc2)cc1	> 100	> 100	> 100	> 100	> 100	> 100	> 100	> 100							
O=C(O)C1CSC2(CCCN(Cc3ccccc3)C2)N1 (stereo not given)	> 100	> 100	> 100	> 100	> 100	> 100	> 100	> 100							
COC(=O)C(CNC(=O)/C=C/c1ccc(OC(C)=O)c(OC(C)=O)c1)NC(=O)/C=C/c1ccc(OC(C)=O)c(OC(C)=O)c1 (stereo not given)	> 100	> 100	> 100	> 100	> 100	> 100	> 100	> 100							
c1ccc(OCc2nnc(CCCCCCCCc3nnc(COc4ccccc4)o3)o2)cc1	> 100	> 100	> 100	> 100	> 100	> 100	> 100	> 100							
O=c1[nH]c2ccc(C(F)(F)F)cc2nc1C(F)(F)F	> 100	89.8	82.1	57.7	78.8	> 100	87.6								
CN1C/C(=C\c2cccs2)C(=O)/C(=C/c2cccs2)C1	49.2	72.1	> 100	83.3	34.1	55.4	76.5	> 100							
Cc1cc(O)c(C(C)C)cc1C(=S)Nc1ccc(Cl)cc1	27.3	30.7	27.9	23	23.1	20.2		33.9							
CSc1c(C)n([O-])c2cc(Cl)c(Cl)cc2[n+]1=O	33.2	32.7	32.5	> 60.7	36.7	30.6	33.3	42.9							
CCOC(=O)C1=C(C)N(Cc2ccccc2)C2(O)C(OC)CC(=O)C3C(=O)N(c4ccccc4)C(=O)C132 (stereo not given)	> 100	24.3	64.8	55.6	> 100	18.4	41.5	> 100							
O=C1c2cc3ncsc3cc2C(=O)c2c(O)ccc(O)c21	> 100	> 100	> 100	> 100	> 100	> 100	> 100	> 100							
COc1ccc(C2NC(N)=C(C#N)C3=C2C(C)CCC3)cc1OC (stereo not given)	> 100	> 100	> 100	> 100	> 100		> 100	> 100							
O=C(CN1CCN(c2ccccn2)CC1)N1CCCn2c1nc1ccccc1c2=O	> 100	> 100	> 100	> 100	> 100	> 100	> 100	> 100							
Cc1ccc2c(=O)cc(-c3cccc(F)c3)[nH]c2n1	> 100		> 100	1.29	0.0224	> 100	> 100	> 100							
NC(=S)NS(=O)(=O)c1ccc(Cl)cc1	> 100	> 100	> 100	> 100	> 100	> 100	> 100	> 100							
CC(C)(NC(=O)C(C)(C)NC(=O)OCc1ccccc1)C(=O)O (Cbz-[Aib]-[Aib]-OH)	> 100		> 100	> 100	> 100	> 100	> 100	> 100							
Cc1ccc(S(=O)(=O)NC(=O)NC(CC(=O)O)C(=O)O)cc1 (stereo not given)	> 100	> 100		> 100		> 100	> 100	> 100							
CCCCCCCCCCOc1ccc(N=Nc2nnc(-c3ccc(OCCCCC)cc3)s2)cc1	> 100	> 100	> 100	> 100	> 100	> 100	> 100	> 100							
CC(C)(C)OC(=O)NNCC(O)COc1ccccc1 (stereo not given)	> 100	> 100	> 100		> 100	> 100	> 100	> 100							
CC(=O)c1c(O)cc(O)c(-c2c(C)cc(O)c3c2C(=O)c2cccc(O)c2C3=O)c1O	31.7	35.3		33.5	34.5	28.5	36	36.8							
COc1ccc(/C=C2\OC(=O)C(Cl)=C2c2ccc(OC)c(Cl)c2)cc1	35.5		56.8	> 100	59.9	51.8		> 100							
CC1=NN(c2nc(N)nc(-c3cc4ccccc4oc3=N)n2)C(C)(C)C1	29.8	47	31.1	34.2	41.8	31.2	43								
COc1ccc(S(=O)(=O)Nc2cc(Sc3cccc4cccnc34)c(O)c3ccccc23)cc1		16.9	10.5	15	13.2	1.93	4.99	3.62	2.65	2.53	1.64	2.2	0.609	1.06	0.815
COc1cccc(N(CN2C(=O)CCC2OC)C(C)=O)c1 (stereo not given)	> 100		> 100	> 100	> 100	> 100	> 100	> 100							
O=C(O)c1cccc(S(=O)(=O)NN2C(=O)CSC2c2c(O)ccc3ccccc23)c1 (stereo not given)	> 100		68	> 100	> 100	83	> 100	65.7							

From PubChem BioAssay (NCI)
